The record followed here is patent publication US20240041976A1, “COMPOSITION AND USE” (priority 2020, published 2024).

Test [1] has as its system S. aureus biofilms (six strains). As to the kind of experiment: BOAT, summary over strains. The test is classed as cell-based, Staphylococcus aureus. As to the method:
The BOAT assay was performed as described previously (Gronseth et al., 2017, Int. J. Pediatr. Otorhinolaryngol., Vol. 103, p 58-64) with some modifications. The serial dilutions of the antimicrobials were prepared in challenge plates as follows: 175 μl of TSB were transferred in each row of a 96-well microtiter plate, except for the first row, according to the number of microbial strains to treat. In the first row of the plate, the antimicrobials were diluted to their respective working concentrations in a final volume of 350 μl of TSB. From the first row, 175 μl of the antimicrobial dilutions were then transferred to the second row of the plate and further serially diluted to the bottom of the plate. The same procedure was followed to prepare the controls, except that instead of the antimicrobials an equivalent volume of the respective vehicles were used. […] The results were then assessed by monitoring the development (or not) of red formazan (red colour), denoting the retention of metabolic activity by bacterial cells (Moussa et al., 2013, J. Mycol., Vol. 2013; Perez et al., 2010, Lett. Appl. Microbiol., Vol. 51, p 331-337). […] The amount of extracted dye, reflecting the degree of bacterial cell metabolic activity, was then quantified by spectrophotometric readings at 492 nm.

Test [2] has as its system S. haemolyticus strains 4068-4073. As to the kind of experiment: microbe, parasite or virus in culture. The test is classed as cell-based. Particulars: 5 hour incubation. As to the method: Bacteriocins and antimicrobial assays. K1-EJ and garvicin KS peptides (Gak-A, -B and -C) were synthesized by Pepmic Co., Ltd, China, with >95% purity. These bacteriocins were all solubilized in 0.1% (vol/vol) trifluoracetic acid (TFA; Sigma-Aldrich). Micrococcin P1 was purchased from Cayman Chemical, Michigan, USA with 95% purity and solubilized in a 50% (v/v) mixture of isopropanol (Merck) […] (Sigma-Aldrich) at a stock concentration of 1 mg/ml. Cell growth inhibition assays and antimicrobial synergy determination was performed in line with Example 1.
To investigate whether there was synergy between the three bacteriocins (K1-EJ, GarKS and MP1), a checkboard antimicrobial assay was performed. The selected strains were treated for 5, 24 and 48 h with a range of concentrations of K1-EJ, GarKS and MP1 alone or in different combinations. […] Double combinatorial treatments (GarKS/MP1; K1-EJ/GarKS; K1-EJ/MP1) increased the antimicrobial activity of the bacteriocins. […] This was particularly evident at the 24 and 48 h time-points.

In test [3] the test system is S. pseudintermedius MRSP 45. The experiment in a line: microbe, parasite or virus in culture. It is filed as cell-based, Staphylococcus pseudintermedius. Particulars: Staphylococcus pseudintermedius, MRSP45, MRSP 45, 24 h, read-out: MIC, single component. As to the method:
(§1) Antimicrobial activity was measured using the AAMP assay (Wiegand et al., 2008, Nat. Protoc., Vol. 3(2), p 163-175).
(§2) Synergy testing was done with a microtiter plate checkerboard assay as previously described (Orhan et al., 2005, J. Clin. Microbiol., Vol. 43(1), p 140-143). Briefly, equal amounts of antimicrobial A were applied on microtiter plate 1 in wells A1-H1 and then diluted two-fold to wells 2-12. Similarly, equal amounts of antimicrobial B were applied on microtiter plate 2 in wells A1-A12 and diluted two-fold in wells B-H. Volumes of 50 μl of antimicrobial A from each well of microtiter plate 1 were transferred into microtiter plate 3, except for wells H1-H12. Similarly, the same volumes were transferred from microtiter plate 2 into plate 3, except for wells A1-A8. A 100 μl volume of 25 times diluted ON bacterial culture of MRSA was transferred into each well of plate 3. A 50 μl volume of pure broth was added into each well in lines H1-H12 and A1-A8 which were used to estimate MIC values of pure substances (blank).
(§3) Antimicrobial activity was measured using the AAMP assay as described in Example 2.
(§4) Synergy testing was performed as in Example 2.

For a further test, the system named is MRSA ATCC 33521-lux. As to the kind of experiment: Agar plate spot assay, resistance development (FIG. 4). It is filed as cell-based, Staphylococcus aureus. Particulars: up to 72 h incubation at 37° C. As to the method:
Pure GarKS and PenG each at 50 μg, MP1 at 0.1 μg, were applied at the indicated spots. The pictures of the plates were taken after 24, 48 and 72 h of incubation at 37° C. Sections of the inhibition zones on the right show resistance development seen as small white dots (in the inhibition zones of GarKS and MP1).

Test [4] concerns lactococci, listeria and enterococci. As to the kind of experiment: MIC against other indicators (data not shown). The test is classed as cell-based. As to the method:
as §1

The subject of a further test is S. haemoliticus NVH 409. As to the kind of experiment: organism not typed. It is filed as cell-based. As to the method:
as §1, §2, §3, §4

Another test deals with E. faecalis 3351. The experiment in a line: microbe, parasite or virus in culture. The test is classed as cell-based, Enterococcus faecalis. The protocol: as §1, §2, §3, §4
Another test concerns E.faecalis 3689. As to the kind of experiment: microbe, parasite or virus in culture. The test is classed as cell-based, Enterococcus faecalis. As to the method:
as §1, §2, §3, §4

Another test concerns S. aureus biofilms. As to the kind of experiment: BOAT followed by CFU counting. It is filed as cell-based, Staphylococcus aureus. Particulars: 5 mg/ml garvicin KS, 0.1 mg/ml micrococcin P1, 10 mg/ml penicillin G. The protocol:
The procedure for the BOAT assay was repeated as described above except that instead of adding the TTC solution, the antimicrobial-challenged cells were resuspended in TSB and then serially diluted in TSB buffer. Serial dilutions of the bacterial cells were than plated on BHI agar plates and incubated at 37° C. for 24 h. The results were then assessed by direct counting of the developed colonies and the colony forming unit (CFU) was determined.

Test [5] concerns S. aureus ATTC 33591 biofilm. As to the kind of experiment: LIVE/DEAD biofilm staining, confocal microscopy. The test is classed as cell-based, Staphylococcus aureus. The settings on record: data not shown.

Where two headings read alike, the source gives them in different places. No end group written: not given here. A value given as a limit tells only on which side of the number the result lay.

As for `C/C=C(\NC(=O)c1csc(-c2csc(-c3ccc4c(n3)-c3csc(n3)[C@H]([C@@H](C)O)NC(=O)c3csc(n3)[C@H](C(C)C)NC(=O)c3csc(n3)/C(=C/C)NC(=O)[C@H]([C@@H](C)O)NC(=O)c3csc-4n3)n2)n1)C(=O)NC[C@@H](C)O` [MP1, micrococcin P1], in [1] (six strains, up to 5 mg/ml garvicin KS, 0.1 mg/ml micrococcin P1), the “effect on biofilm-associated metabolic activity (BOAT)” value is “ineffective against all the strains”. In addition, the “increase in resistance compared to the planktonic state” value in test [1] (some of the biofilm producers) is “over 160 fold”. In test [2] (Staphylococcus haemolyticus, STRAINS40684073, read-out: MIC50 values over strains), the MIC50 lay in the range of 0.02 to 0.15 µg/mL. The MIC is more than 2.5 µg/mL in test [3] (Table 8); 1.25 µg/mL with S. haemoliticus NVH 409 (S. haemoliticus NVH 409, read-out: MIC, single antimicrobial); more than 45 µg/mL with E. faecalis 3351 (Enterococcus faecalis, E. faecalis 3351, read-out: MIC, single antimicrobial); more than 45 µg/mL in the test with E.faecalis 3689 (Enterococcus faecalis, E.faecalis 3689, read-out: MIC, single antimicrobial). For the same molecule, the “resistance development on agar plates” value in the test with MRSA ATCC 33521-lux is “resistant colonies of MRSA appeared within the inhibition zones”. In addition, the “MIC values, range” value in [4] was 1 to 10 µg/mL.
As to `CC1(C)S[C@@H]2[C@H](NC(=O)Cc3ccccc3)C(=O)N2[C@H]1C(=O)O` [Penicillin G], the “cell viability, LogCFU after BOAT” value in the test with S. aureus biofilms is given as “reduction in the viability of the non-MRSA strains”. Moreover, the MIC in test [3] (Table 9) is more than 125 µg/mL. Besides, the LIVE/DEAD staining pattern entry in [5] was “increased resistance”.
On to “MKFKFNPTGTIVKKLTQYEINWYKQQYGRYPWERPVA [Hybrid K1-EJ]”, for which the “MIC50 values over strains” value in test [2] came out at 0.78 µg/mL. Moreover, the “MIC, single antimicrobial” value in the test on S. haemoliticus NVH 409, with E. faecalis 3351 (3351) and in the test with E.faecalis 3689 (3689) was more than 25 µg/mL throughout. Further, the “MIC of MP1 in comb. with the labelled antimicrobial” value with S. haemoliticus NVH 409 (S. haemoliticus NVH 409) was 0.08 µg/mL; with E. faecalis 3351 (E. faecalis 3351), 5.6 µg/mL; in the test on E.faecalis 3689 (E.faecalis 3689), 3 µg/mL. The “MIC of the labelled antimicrobial in comb. with MP1” value in the test on S. haemoliticus NVH 409 (S. haemoliticus NVH 409) was 3 µg/mL; in the test with E. faecalis 3351 (E. faecalis 3351) it was 3 µg/mL; with E.faecalis 3689 (E.faecalis 3689) it was 1.5 µg/mL.

B1: Garvicin KS: three-peptide leaderless bacteriocin (GarA, GarB, GarC; SEQ ID NO:6-8), peptides synthesized (peptide, listed as Lactococcus garvieae)
chain 1: MGAIIKAGAKIVGKGVLGGGASWLGWNVGEKIWK
chain 2: MGAIIKAGAKIIGKGLLGGAAGGATYGGLKKIFG
chain 3: MGAIIKAGAKIVGKGALTGGGVWLAEKLFGGK
With B1, in the test on S. aureus biofilms, the “cell viability, LogCFU after BOAT” value was “most dramatic reduction in LogCFU levels for all the strains”. The “resistance development on agar plates” value in the test on MRSA ATCC 33521-lux is reported as “resistant colonies of MRSA appeared within the inhibition zones”. Further, the “MIC values, range” value in test [4] is 1 to 20 µg/mL. The LIVE/DEAD staining pattern entry in test [5] was “increased resistance”.
